According to ChEMBL document CHEMBL1143240, “Inhibiting dihydrodipicolinate synthase across species: towards specificity for pathogens?” (Bioorg Med Chem Lett, 2008):
Activity calls are given as the source filed them. No cut-off for these calls is given here.

Legend:
Escherichia coli [1] = assay: Inhibition of Escherichia coli DHDPS at 20 mM
[2] = molecular target: T1, Dihydrodipicolinate synthase (Bacillus anthracis) (UniProt A0A6L7H340); assay: Inhibition of Bacillus anthracis DHDPS at 20 mM
T1 sequence (whole entry): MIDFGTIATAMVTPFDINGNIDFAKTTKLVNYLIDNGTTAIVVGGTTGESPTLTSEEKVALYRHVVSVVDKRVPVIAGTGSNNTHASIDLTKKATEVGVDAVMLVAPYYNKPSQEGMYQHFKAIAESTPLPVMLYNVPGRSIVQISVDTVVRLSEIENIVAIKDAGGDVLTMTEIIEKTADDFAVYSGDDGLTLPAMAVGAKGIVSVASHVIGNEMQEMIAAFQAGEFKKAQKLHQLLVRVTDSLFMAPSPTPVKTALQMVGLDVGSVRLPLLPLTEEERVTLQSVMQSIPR

[3] = molecular target: 4-hydroxy-tetrahydrodipicolinate synthase (Mycobacterium tuberculosis) (UniProt P9WP25); assay: Inhibition of Mycobacterium tuberculosis DHDPS at 20 mM
Staphylococcus aureus = assay: Inhibition of methicillin-resistant Staphylococcus aureus DHDPS at 20 mM
Escherichia coli [4] = assay: Inhibition of Escherichia coli NAL at 20 mM
[5] = Inhibition of Escherichia coli DHDPS
Escherichia coli [6] = assay: Antibacterial activity against Escherichia coli at 20 uM relative to control; assay type: functional, organism-based

Row | Compound | inhibition (Escherichia coli [1]) [%] | inhibition [2] [%] | inhibition [3] [%] | inhibition (Staphylococcus aureus) [%] | inhibition (Escherichia coli [4]) [%] | Ki [5] [mM] | Activity (Escherichia coli [6])
1 | COC(=O)[C@@H]1CCC[C@H](C(=O)OC)N1 | 92 | 99 | 24 | 58 | 18 | – | –
2 | COC(=O)[C@@H]1CSC[C@@H](C(=O)OC)N1 | 12 | 19 | 0 | 0 | 0 | – | –
3 | N[C@@H](CC=O)C(=O)O | – | – | – | – | – | 14 | –
4 | O=C(O)c1cc(=O)cc(C(=O)O)[nH]1 | 74 | 0 | 73 | 83 | 27 | – | Active
5 | CC(=O)C(=O)O [PYRUVATE] | – | – | – | – | – | 7 | –
6 | O=C(O)[C@@H]1CCC[C@H](C(=O)O)N1 | 49 | 73 | 43 | 51 | 21 | – | –
7 | COC(=O)c1cc(=O)cc(C(=O)OC)[nH]1 | 85 | 0 | 84 | 88 | 64 | – | –
8 | COC(=O)[C@@H]1C[S+]([O-])C[C@@H](C(=O)OC)N1 (some centres undefined) | 0 | 7 | 0 | 7 | 7 | – | –
9 | COC(=O)c1cccc(C(=O)OC)n1 | 5 | 13 | 0 | 0 | 0 | – | –
10 | COC(=O)[C@@H]1CS(=O)(=O)C[C@@H](C(=O)OC)N1 | 14 | 6 | 7 | 0 | 0 | – | –
11 | COC(=O)[C@@H]1CSC[C@H](C(=O)OC)N1 | 35 | 23 | 0 | 0 | 1 | – | –
12 | COC(=O)[C@@H]1C[S@+]([O-])C[C@H](C(=O)OC)N1 | 20 | 22 | 14 | 12 | 38 | – | –
13 | COC(=O)[C@@H]1CS(=O)(=O)C[C@H](C(=O)OC)N1 | 0 | 19 | 6 | 0 | 3 | – | inactive
14 | COC(=O)[C@@H]1C[S@@+]([O-])C[C@H](C(=O)OC)N1 | 8 | 8 | 1 | 10 | 0 | – | –
15 | O=C(O)c1cccc(C(=O)O)n1 | 76 | 80 | 75 | 67 | 1 | – | –
